Experimental data from US20100273876A1, “ANTIBACTERIAL FORMULATION COMPRISING A DIALKYL SULPHOSUCCINATE AND A CARBANILIDE ANTIBACTERIAL AGENT” (priority 2007, published 2010).
In brackets after ≈: the same amount, converted by molar mass. Where two headings read alike, the source gives them in different places.

Assays:
[1] = test system: Por. gingivalis NCTC 11834; experiment: MBC assay; assay type: cell-based, Porphyromonas gingivalis
Method: (§1) The P. gingivalis strains were cultured and maintained on Wilkins-Chalgren Anaerobe Medium (agar and broth) at pH 7.0; all cultures were incubated anaerobically at 37° C. for 5-7 days. This assay, normally carried out after an MIC assay, determines the rnininiurn concentration of a compound that is lethal to the micro-organism being tested. […] These samples were then individually sub-cultured on antibiotic-free agar medium, under the incubation conditions described above. Following incubation they were examined visually for microbial growth.

[2] = test system: Strep. mutans ATCC 25175; experiment: Biofilm disruption assay on hydroxyapatite discs; assay type: cell-based, Streptococcus mutans; conditions: Strep. mutans ATCC 25175 biofilm, DOSS 1.0% (w/v), CHX 0.2% (w/v)
Method: This assay was designed to determine quantitatively the relative potency of a test compound to disrupt (effectively kill) biofilms formed by a test organism on hydroxyapatite (HA) discs.
Biofilms were formed on sterile dense ceramic HA discs 7 mm diameter x 1.8 mm thick (Clarkson Chromatography) by placing the discs in the appropriate liquid media (as described above) inoculated with the test organism (0.5×10^8 cfu/ml). The HA discs were then incubated at 37° C. for ˜48 h in a 5% CO2 atmosphere (for Strep. mutans ATCC 25175) or ˜96 h under anaerobic conditions (for Por. gingivalis 381). Following the incubation period the supernatant was removed from the wells containing the HA discs and the discs were washed×3 with fresh media to ensure all planktonic cells were removed. The HA discs were then transferred to sterile bijoux bottles containing 1 ml of phosphate buffered saline (PBS) plus test compound(s) at the required concentration. After a set time period (usually 2 and/or 5 min), the HA disc was transferred to another sterile bijoux containing 1 ml of fresh growth media. Adherent cells were then harvested by vigorous vortexing for 2 minutes. A sample was then taken, serially diluted 10-fold in fresh growth media and inoculated onto agar plates in triplicate. Untreated HA discs, and HA discs added to PBS containing only the solvents used to dissolve the test compound(s), acted as controls.
The plates were then incubated as described above and subsequently examined visually for growth. Colonies were counted at an appropriate serial dilution (5-50 individual colonies visible) with the aid of a colony counter. These measurements were then converted to numbers of colony forming units (cfu), using the formula: cfu/ml=number of colonies×serial dilution factor×100 (as only a 10 μl sample was taken).
These cfu values were then converted into log10 values and plotted graphically against time of sample removal.
At each time point, samples were assessed in triplicate; the final cfu/ml value was an average (mean) of the three readings.
Biofilm disruption assays, as described above, were carried out using DOSS as the test compound and chlorhexidine (CHX) as a positive control. For these experiments, the DOSS was tested at 0.5% w/v against Por. gingivalis and 1% w/v against Strep. mutans. The ahlorhexidine was tested at a concentration of 0.2% w/v against both micro-organisms. The DOSS was dissolved in ethanol and the chlorhexidine in distilled water. All the experiments were conducted in triplicate.

[3] = test system: S. aureus ATCC 29213; experiment: (S)DDA disc diffusion; assay type: cell-based, Staphylococcus aureus; conditions: 200 μg per disc
Method: (§2) A sterile paper disc was impregnated with a sample of the test compound in a suitable solvent and 30 minutes allowed for the solvents to evaporate (where possible). The disc was then placed on an agar plate onto which the test micro-organism had been inoculated. The plate was then incubated under the conditions described above, following which it was examined visually for signs of microbial growth. If the test compound had antimicrobial activity, a circular zone of no growth would be obtained around the disc. The diameter of this zone of “inhibition” was measured using a ProtoCOL™ automated zone sizer (Synbiosis, Cambridge, UK). In general, a greater diameter and/or area of the zone of inhibition indicates a greater antimicrobial activity in the relevant test compound, although other factors such as test compound mobility through the agar gel may also influence the result.
(§3) Two test a compounds A and B were placed on a single paper disc and the above described DDA procedure repeated. An increase in diameter of the zone of inhibition, compared to the greater of the zone diameters for the two compounds individually, was taken to indicate potential antimicrobial synergy. In practical terms, an increase of greater than 5 mm could be treated as significant.
(§4) The activities of DOSS and TCC against S. aureus ATCC 29213 and EMRSA 15 were determined using (S)DDAs as described above. 200 μg of the DOSS and/or the TCC were loaded onto each disc. All the experiments were conducted in triplicate.

[4] = test system: EMRSA 15; experiment: (S)DDA disc diffusion; assay type: cell-based, Staphylococcus aureus; conditions: 200 μg per disc
Method: as §2, §3, §4

[5] = test system: P. acnes NCTC 737; experiment: Minimum bactericidal concentration (MBC) assay; assay type: cell-based, Propionibacterium acnes
Method: as §1, with “propionibacteria” for “P. gingivalis strains”, “6.0;” for “7.0;”, “72 hours.” for “5-7 days.”

[6] = test system: Clost. difficile ATCC 7000057; experiment: (S)DDA disc diffusion; assay type: cell-based, Clostridium difficile; conditions: 200 μg per disc
Method: as §2
(§5) Two test a compounds A and B were placed on a single paper disc and the above described DDA procedure repeated. […]
(§6) The activities of DOSS and TCC were determined, using (S)DDAs, against a panel of further test micro-organisms, namely B. cereus ATCC 11778, Bact. fragilis ATCC 25285, Clost. difficile […] and E. faecalis ATCC 29212. […]

[7] = test system: P. acnes NCTC 737; experiment: Minimum inhibitory concentration (MIC) assay, liquid medium; assay type: cell-based, Propionibacterium acnes
Method: The propionibacteria were cultured and maintained on Wilkins-Chalgren Anaerobe Medium (agar and broth) at pH 6.0; all cultures were incubated anaerobically at 37° C. for 72 hours.
This is a standard international method for quantitatively assessing the antimicrobial activity of a compound in a liquid medium. The method used a sterile 96-well microtitre plate, capable of holding about 200 μl of liquid per well. The wells contained liquid culture medium and ranges of decreasing concentrations of the relevant test compound in doubling dilutions (eg, 1000, 500, 250, 125 . . . μg/ml, etc. down to 0.49 μg/ml). The culture media were as described above.
The wells were inoculated with a liquid suspension of freshly grown micro-organism and incubated under the conditions described above. After incubation, the microtitre plate was examined visually (with the aid of a light box) for cloudiness in each well, which would indicate microbial growth. The MIC value was recorded as the lowest concentration of test compound required to inhibit microbial growth, ie, the lowest concentration for which the liquid in the well remained clear.
The assays included both negative (culture medium with no micro-organisms) and positive (culture medium plus diluting solvent plus micro-organism) controls.

[8] = test system: E. faecalis ATCC 29212; experiment: (S)DDA disc diffusion; assay type: cell-based, Enterococcus faecalis; conditions: 200 μg per disc
Method: as §2, §5, §6

dioctyl sodium sulphosuccinate [DOSS]
MBC [1]: <0.49 µg/mL
Viable cell counts ([2]; 0 min): 6.56 log10 cfu/ml
Viable cell counts ([2]; 2 min): 2.87 log10 cfu/ml
Viable cell counts ([2]; 5 min): 3.36 log10 cfu/ml
DDA [3]: 12.22 mm
DDA [4]: 12.42 mm
MBC [5]: 62.5 µg/mL
MIC/MBC ratio [5]: 0.25
DDA [6]: 0.0 mm
MIC [7]: 15.6 µg/mL
DDA [8]: 10.31 mm

O=C(Nc1ccc(Cl)cc1)Nc1ccc(Cl)c(Cl)c1 [TCC, N-(4-chlorophenyl)-N′-(3,4-dichlorophenyl) urea]
DDA [3]: 12.84 mm
DDA [4]: 12.42 mm
MBC ([5]; Cutibacterium acnes, NCTC737, read-out: MBC): 31.2 µg/mL (≈ 99 µM)
DDA [6]: 0.0 mm
MIC ([7]; Cutibacterium acnes, NCTC737, read-out: MIC): 0.12 µg/mL (≈ 0.38 µM)
DDA [8]: 9.68 mm
